From patent US20250241901A1, “ACTIVATION OF MNRR1 / CHCHD2 AS A THERAPEUTIC TARGET FOR MITOCHONDRIA ASSOCIATED DISORDERS” (Wayne State University, priority 2024, published 2025)

Key:
[1] = Clinical use of nitazoxanide in adult humans; assay type: in vivo, human; conditions: 500 mg (per adult) twice a day
[2] = tested on: mtDNA harboring the m.3243A>G mutation; assay: Heteroplasmy by Haelll digestion of mtDNA fragment, DW7 cells; assay type: cell-based, human; conditions: 10 μM, 144 h
Description: FIGS. 7A-7E: MNRR1 activation by tizoxanide enhances mtDNA biogenesis and mitophagy to shift heteroplasmy in MELAS cells. FIG. 7A: Oxygen consumption measured from MELAS cybrid cells treated with vehicle (DMSO) or tizoxanide (10 μM) for 48 h (n=4 biological replicates, error bars represent SE). FIG. 7B: Haelll restriction enzyme digestion of a PCR-amplified fragment of mtDNA harboring the m.3243A>G mutation from DW7 cells treated with vehicle (DMSO) or tizoxanide (10 μM) for 144 h. […] FIG. 7C: Genes identified using qPCR of MELAS cybrid cells stably overexpressing EV or MNRR1. FIG. 7D: MtDNA levels are shown relative to nuclear DNA (nDNA) (GAPDH) (n=5 biological replicates, error bars represent SE). FIG. 7E: Equal amounts of MELAS cybrid cell lysates, treated with vehicle (DMSO) or tizoxanide (10 μM) for 48 h, were separated on an SDS-PAGE gel and probed for PGC1a, PINK1, LC3 A/B, MNRR1, and Tubulin. FIG. 7F: Equal numbers of MELAS cells were treated as in FIG. 7E, separated on an SDS-PAGE gel, and probed for phospho-ubiquitin (S65) levels. Tubulin was probed as a loading control. In all figures, * indicates p<0.05, ** indicates p<0.005.
Restriction Enzyme Digestion: DNA was analyzed for the MELAS mutation as described previously. […]

[3] = tested on: MELAS patient fibroblasts; assay: Mitophagy and mitochondrial biogenesis markers in MELAS patient fibroblasts (immunoblot); assay type: cell-based, human; conditions: fibroblasts from three MELAS patients, 10 μM, 48 h
Description: FIGS. 8A-8D: MNRR1 activation using tizoxanide enhances mitochondrial function, mitophagy, and protects from LPS-induced inflammation in MELAS patient fibroblasts. FIG. 8A: Equal amounts of lysates from MELAS patient fibroblast (MF 1, 2, or 3) lysates treated with vehicle (DMSO) or tizoxanide (10 μM) for 48 h were separated on an SDS-PAGE gel and probed for LC3B, PGC1a, MNRR1, MTCO2, TOM20, and phospho-ubiquitin (S65) levels. GAPDH orTubulin was probed as a loading control. FIG. 8B: Oxygen consumption measured from MELAS patient fibroblasts treated with vehicle (DMSO) or tizoxanide (10 μM) for 48 h (n=4 biological replicates, mean±SE). FIG. 8C: Mitochondrial ATP rate measured in MELAS patient fibroblasts treated with vehicle (DMSO) or tizoxanide (10 μM) for 48 h (n=4 biological replicates, mean±SE). […]
Immunoblotting: Immunoblotting was performed as described previously. […] The clear supernatants were transferred to new tubes and quantified using the Bradford reagent with BSA as standard (BioRad, Hercules. CA). […] For detection after immunoblotting, the SuperSignal™ West Pico PLUS substrate (ThermoFisher, Waltham, MA) was used to generate chemiluminescence signal, which was detected with X-Ray film (RadTech, Vassar, MI).

[4] = tested on: MNRR1; assay: MNRR1 immunoblot in several other human cell lines; assay type: cell-based; conditions: 10 μM, 24 h
Description: FIGS. 5A-5E: FIG. 5A: Venn diagram showing activators identified in HEK293 and MDA-MB-468 cells. FIG. 5B: Equal amounts of MELAS cells treated with Vehicle (DMSO) or various MNRR1 activating compounds (10 μM) for 24 h were separated on an SDS-PAGE gel and probed for MNRR1 levels. Actin was probed as a loading control and numbers below represent an average and standard deviation (SD) of two biological replicates. FIGS. 5C-5E: Equal amounts of cell lysates from various cell lines treated with vehicle (DMSO) or tizoxanide (10 μM) for 24 h were separated on an SDS-PAGE gel and probed for MNRR1 plus loading controls GAPDH or tubulin.
Immunoblotting: Immunoblotting was performed as described previously. Cell lysates for immunoblotting were prepared using RIPA buffer (Abcam, Waltham, MA) and included a protease and phosphatase inhibitor cocktail (Sigma, St. Louis, MO). Total protein extracts were obtained by centrifugation at 21,000×g for 30 min at 4° C. The clear supernatants were transferred to new tubes and quantified using the Bradford reagent with BSA as standard (BioRad, Hercules. CA). […] For detection after immunoblotting, the SuperSignal™ West Pico PLUS substrate (ThermoFisher, Waltham, MA) was used to generate chemiluminescence signal, which was detected with X-Ray film (RadTech, Vassar, MI).

Row | Structure (SMILES) | drug concentration in the blood [1] | increase in proportion of WT mtDNA [2] | mitochondrial biogenesis (PGC1α, MTCO2, TOM20 levels) [3] | mitophagy (LCB and pSer-65 ubiquitin levels) [3] | MNRR1 level [4]
1 | CC(=O)Oc1ccccc1C(=O)Nc1ncc([N+](=O)[O-])s1 [nitazoxanide, Nitazoxanide] | around 600 micromolar |  |  |  | 
2 | O=C(Nc1ncc([N+](=O)[O-])s1)c1ccccc1O [tizoxanide, Tizoxanide] |  | about 14% | enhances | enhances | increase of MNRR1
